Laboratory results published in patent publication US10167279B2 (NOVARTIS AG, priority 2014, dated 2019).
pIC50: −log10 of the molar value.

Assays:
b-Raf (V600E) = b-Raf (V600E) (Homo sapiens (Human), UniProt P15056, V600E); assay: In vitro Raf activity determination (Alpha Screen, phospho-MEK), b-Raf (V600E); format: biochemical; conditions: ATP 10 μM, 60 min pre-incubation, 3 hours reaction
C-Raf FL = C-Raf FL (Homo sapiens (Human), UniProt P04049, Y340E/Y341E); assay: In vitro Raf activity determination (Alpha Screen, phospho-MEK), C-Raf FL (full length, Y340E/Y341E); format: biochemical; conditions: ATP 1 μM; 60 min pre-incubation; 1 hour reaction; column head does not say FL or TR
Procedure, shortened: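 Read-out is AlphaScreen luminescence using rabbit anti-p-MEK with protein A beads after EDTA stop, with IC50 fitted by non-linear regression. Reaction: Sf9-derived C-Raf plus biotinylated E. coli MEK1 K97R substrate, pH 7.5 Tris/MgCl2/DTT buffer, compound preincubated 60 min at room temperature.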

b-Raf (V600E), sequence (P15056 whole entry V600E): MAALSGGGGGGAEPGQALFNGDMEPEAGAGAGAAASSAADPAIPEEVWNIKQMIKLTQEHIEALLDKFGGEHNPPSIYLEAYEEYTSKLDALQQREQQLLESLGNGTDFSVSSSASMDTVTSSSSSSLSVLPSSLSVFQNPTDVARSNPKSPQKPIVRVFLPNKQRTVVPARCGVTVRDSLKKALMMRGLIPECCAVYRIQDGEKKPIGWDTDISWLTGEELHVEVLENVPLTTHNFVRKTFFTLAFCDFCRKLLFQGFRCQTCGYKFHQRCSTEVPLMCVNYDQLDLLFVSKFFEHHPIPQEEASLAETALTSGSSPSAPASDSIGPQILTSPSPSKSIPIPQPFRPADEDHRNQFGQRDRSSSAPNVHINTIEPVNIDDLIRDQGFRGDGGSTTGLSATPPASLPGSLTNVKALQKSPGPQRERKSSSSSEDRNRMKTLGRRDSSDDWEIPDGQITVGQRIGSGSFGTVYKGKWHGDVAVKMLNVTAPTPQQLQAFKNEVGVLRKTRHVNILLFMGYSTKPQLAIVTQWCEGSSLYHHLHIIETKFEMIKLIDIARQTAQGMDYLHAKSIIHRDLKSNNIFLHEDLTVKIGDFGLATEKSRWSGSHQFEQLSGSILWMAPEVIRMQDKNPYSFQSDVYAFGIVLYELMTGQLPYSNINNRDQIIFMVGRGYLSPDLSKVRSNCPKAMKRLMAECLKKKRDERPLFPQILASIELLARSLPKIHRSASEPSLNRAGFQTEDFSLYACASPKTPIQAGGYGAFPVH
C-Raf FL, sequence (P04049 whole entry Y340E/Y341E): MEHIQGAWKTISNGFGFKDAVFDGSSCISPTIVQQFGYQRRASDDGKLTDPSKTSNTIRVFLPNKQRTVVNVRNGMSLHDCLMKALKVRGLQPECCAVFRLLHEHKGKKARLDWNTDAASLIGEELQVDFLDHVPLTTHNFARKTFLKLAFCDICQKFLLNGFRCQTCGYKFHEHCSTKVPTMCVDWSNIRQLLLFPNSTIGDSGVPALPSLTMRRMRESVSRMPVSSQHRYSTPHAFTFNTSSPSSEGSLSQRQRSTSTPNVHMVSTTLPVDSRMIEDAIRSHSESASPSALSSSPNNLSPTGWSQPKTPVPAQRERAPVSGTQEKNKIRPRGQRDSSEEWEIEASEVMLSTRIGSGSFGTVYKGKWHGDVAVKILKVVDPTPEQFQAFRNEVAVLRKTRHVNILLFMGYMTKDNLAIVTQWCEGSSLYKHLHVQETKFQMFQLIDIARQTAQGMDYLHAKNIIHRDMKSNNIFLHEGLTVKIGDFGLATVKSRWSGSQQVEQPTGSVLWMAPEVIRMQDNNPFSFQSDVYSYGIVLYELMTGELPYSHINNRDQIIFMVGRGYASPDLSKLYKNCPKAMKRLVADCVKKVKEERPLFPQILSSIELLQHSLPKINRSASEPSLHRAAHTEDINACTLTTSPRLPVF
C-Raf FL, sequence (P63104 whole entry partner): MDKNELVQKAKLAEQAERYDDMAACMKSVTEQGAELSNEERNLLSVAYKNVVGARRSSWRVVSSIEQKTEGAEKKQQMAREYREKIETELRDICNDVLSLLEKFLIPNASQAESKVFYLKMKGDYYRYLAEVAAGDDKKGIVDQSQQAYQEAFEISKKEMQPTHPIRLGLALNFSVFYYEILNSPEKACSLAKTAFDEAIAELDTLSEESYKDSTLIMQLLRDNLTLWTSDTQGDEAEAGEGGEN

COc1ncc(-c2cc(NC(=O)c3cc(C(C)(C)N)cc(C(F)(F)F)c3)cnc2C)cc1C1(CF)COC1 [Example 109, 3-(2-aminopropan-2-yl)-N-(5′-(3-(fluoromethyl)oxetan-3-yl)-6′-methoxy-2-methyl-[3,3′-bipyridin]-5-yl)-5-(trifluoromethyl)benzamide] showed a pIC50 (b-Raf (V600E)) of 8.02 and a pIC50 (C-Raf FL) of 8.65.

With COc1ncc(-c2cc(NC(=O)c3ccnc(C4(C#N)CC4)c3)ccc2C)cc1C1(O)COC1 [Example 100] the pIC50 (b-Raf (V600E)) was 8.66 and the pIC50 (C-Raf FL) was 9.52.

Compound COc1ncc(-c2cc(NC(=O)c3ccnc(C(F)(F)F)c3)cnc2C)cc1C1(F)COC1 [Example 79, N-(5′-(3-fluorooxetan-3-yl)-6′-methoxy-2-methyl-[3,3′-bipyridin]-5-yl)-2-(trifluoromethyl)isonicotin-amide] has a pIC50 (b-Raf (V600E)) of 8.40 and a pIC50 (C-Raf FL) of 9.31.

In the case of CCC(F)(F)c1cc(C(=O)Nc2cnc(C)c(-c3cnc(OC)c(C4(C#N)COC4)c3)c2)ccn1 [Example 117, N-(5′-(3-cyanooxetan-3-yl)-6′-methoxy-2-methyl-[3,3′-bipyridin]-5-yl)-2-(1,1-difluoropropyl)isonicotin-amide], the pIC50 (b-Raf (V600E)) was 8.14 and the pIC50 (C-Raf FL) was 8.85.

COc1ncc(-c2cc(NC(=O)c3cc(C(C)(C)N)cc(C(F)(F)F)c3)ccc2C)cc1C1(F)COC1 [Example 107, 3-(2-aminopropan-2-yl)-N-(3-(5-(3-fluorooxetan-3-yl)-6-methoxypyridin-3-yl)-4-methylphenyl)-5-(trifluoromethyl)benzamide] was tested, and the pIC50 (b-Raf (V600E)) was 8.53 and the pIC50 (C-Raf FL) was 9.14.

CCOc1ncc(-c2cc(NC(=O)c3ccnc(C(C)(C)C#N)c3)ccc2C)cc1C1(O)COC1 [Example 121, 2-(2-cyanopropan-2-yl)-N-(3-(6-ethoxy-5-(3-hydroxyoxetan-3-yl)pyridin-3-yl)-4-methylphenyl)isonicotin-amide] was tested, and the pIC50 (b-Raf (V600E)) was 8.31 and the pIC50 (C-Raf FL) was 9.01.

COc1ncc(-c2cc(NC(=O)c3cc(C(F)(F)F)ccn3)cnc2C)cc1C1(F)COC1 [Example 83, N-(5′-(3-fluorooxetan-3-yl)-6′-methoxy-2-methyl-[3,3′-bipyridin]-5-yl)-4-(trifluoromethyl)picolin-amide] showed a pIC50 (b-Raf (V600E)) of 10.23 and a pIC50 (C-Raf FL) of 10.87.

COc1ncc(-c2cc(NC(=O)c3ccnc(C(F)(F)F)c3)ccc2C)cc1C1(CF)COC1 [Example 105, N-(3-(5-(3-(fluoromethyl)oxetan-3-yl)-6-methoxypyridin-3-yl)-4-methylphenyl)-2-(trifluoromethyl)isonicotin-amide] gave a pIC50 (b-Raf (V600E)) of 9.49 and a pIC50 (C-Raf FL) of 10.04.

Compound CCOc1ncc(-c2cc(NC(=O)c3ccnc(C(C)(C)F)c3)ccc2C)cc1C1(O)COC1 [Example 122, N-(3-(6-ethoxy-5-(3-hydroxyoxetan-3-yl)pyridin-3-yl)-4-methylphenyl)-2-(2-fluoropropan-2-yl)isonicotinamide] has a pIC50 (b-Raf (V600E)) of 8.75 and a pIC50 (C-Raf FL) of 9.49.

For COc1cc(-c2cc(NC(=O)c3cccc(C(F)(F)F)c3)ccc2C)cc(C2COC2)c1 [Example 21], the pIC50 (b-Raf (V600E)) was 8.56 and the pIC50 (C-Raf FL) was 9.43.

Work on CCOc1nnc(-c2cc(NC(=O)c3ccnc(C(C)(F)F)c3)cnc2C)cc1C1(C)COC1 [Example 127, 2-(1,1-difluoroethyl)-N-(5-(6-ethoxy-5-(3-methyloxetan-3-yl)pyridazin-3-yl)-6-methylpyridin-3-yl)isonicotinamide] yielded a pIC50 (b-Raf (V600E)) of 8.50 and a pIC50 (C-Raf FL) of 9.01.

For Cc1ncc(NC(=O)c2ccnc(C(C)(C)C#N)c2)cc1-c1cnc(OC2CCOCC2)c(C2(O)COC2)c1 [Example 34, 2-(2-cyanopropan-2-yl)-N-(5′-(3-hydroxyoxetan-3-yl)-2-methyl-6′-((tetrahydro-2H-pyran-4-yl)oxy)-[3,3′-bipyridin]-5-yl)isonicotinamide], the pIC50 (b-Raf (V600E)) was 7.69 and the pIC50 (C-Raf FL) was 8.12.

With COc1ncc(-c2cc(NC(=O)c3cc(C(C)(C)N)cc(C(F)(F)F)c3)ccc2C)cc1C1(O)COC1 [Example 101, 3-(2-aminopropan-2-yl)-N-(3-(5-(3-hydroxyoxetan-3-yl)-6-methoxypyridin-3-yl)-4-methylphenyl)-5-(trifluoromethyl)benzamide] the pIC50 (b-Raf (V600E)) was 8.19 and the pIC50 (C-Raf FL) was 8.84.

With Cc1ncc(NC(=O)c2ccnc(C(C)(F)F)c2)cc1-c1cccc(C2(C)COC2)c1 [Example 68, 2-(1,1-difluoroethyl)-N-(6-methyl-5-(3-(3-methyloxetan-3-yl)phenyl)pyridin-3-yl)isonicotinamide] the pIC50 (b-Raf (V600E)) was 8.43 and the pIC50 (C-Raf FL) was 9.21.

For COc1ncc(-c2cc(NC(=O)c3cc(C(C)(C)N)cc(C(F)(F)F)c3)cnc2C)cc1C1(C(F)F)COC1 [Example 113, 3-(2-aminopropan-2-yl)-N-(5′-(3-(difluoromethyl)oxetan-3-yl)-6′-methoxy-2-methyl-[3,3′-bipyridin]-5-yl)-5-(trifluoromethyl)benzamide], the pIC50 (b-Raf (V600E)) was 8.32 and the pIC50 (C-Raf FL) was 9.05.

COc1ncc(-c2cc(NC(=O)c3cc(C(F)(F)F)ccn3)ccc2C)cc1C1(F)COC1 [Example 88, N-(3-(5-(3-fluorooxetan-3-yl)-6-methoxypyridin-3-yl)-4-methylphenyl)-4-(trifluoromethyl)picolin-amide] showed a pIC50 (b-Raf (V600E)) of 9.03 and a pIC50 (C-Raf FL) of 9.52.

With CCOc1ncc(-c2cc(NC(=O)c3cnnc(C(F)(F)F)c3)cnc2C)cc1C1(C)COC1 [Example 66, N-(6′-ethoxy-2-methyl-5′-(3-methyloxetan-3-yl)-[3,3′-bipyridin]-5-yl)-6-(trifluoromethyl)pyridazine-4-carboxamide] the pIC50 (b-Raf (V600E)) was 8.84 and the pIC50 (C-Raf FL) was 9.59.

In the case of COc1ncc(-c2cc(NC(=O)c3ccnc(C(C)(C)O)c3)cnc2C)cc1C1(F)COC1 [Example 81, N-(5′-(3-fluorooxetan-3-yl)-6′-methoxy-2-methyl-[3,3′-bipyridin]-5-yl)-2-(2-hydroxypropan-2-yl)isonicotinamide], the pIC50 (b-Raf (V600E)) was 7.46 and the pIC50 (C-Raf FL) was 8.31.

Cc1ccc(C(=O)Nc2cccc(C(F)(F)F)c2)cc1-c1cccc(C2(C)COC2)c1 [Example 26, 6-methyl-3′-(3-methyloxetan-3-yl)-N-(3-(trifluoromethyl)phenyl)-[1,1′-biphenyl]-3-carboxamide] gave a pIC50 (b-Raf (V600E)) of 8.64 and a pIC50 (C-Raf FL) of 9.43.
